Legend:
[1] = test system: STZ-induced diabetic rats; assay: STZ-induced diabetic rat model: fasting blood glucose and body weight; format: in vivo, Sprague Dawley adult albino rats; settings: vs diabetic control rats
Experimental: Sprague Dawley adult albino rats (body weight range = 170–200 g) were used in in vivo studies. The animals were purchased from Rifah Institute of Pharmaceutical Sciences Islamabad. The entire animals were given food and fresh water ad libitum. The animals were adjusted at room temperature around 22–25 °C. The animals were housed three rats per cage and maintained with light/dark cycle of about 12 h. All the in vivo procedures were carried out according to the ARRIVE guidelines and approval was taken from the Departmental Animal Ethical Committee (DAEC/2019/1), University of Malakand.
(§1) All the animals were separated into nine groups having eight animals each (Table 1). In the current investigational study STZ-induced diabetic model was used to evaluate the anti-hyperglycemic and anti-hyperlipidemic activity of isolated compound morin in chronic multiple dose experiment. All the animals were treated with their respective treatments for 21 days starting daily at 09:00 am. The fasting blood glucose levels were determined at 0, 4th, 7th, 10th, 15th, and 21st days with glucometer from the tail vein. Changes in the body weight were recorded for untreated control, diabetic, and treated groups in fasting condition from day 1 to day 21 of experimental period and are presented as % increase in body weight.
(§2) According to the reported protocol diabetes was induced into Sprague Dawley adult albino rats by intraperitoneal injection of STZ (50 mg/kg body weight). Blood samples were collected from the tail vein through glucometer strips by means of SD glucometer and the level of blood glucose was measured 72 h after STZ injection. Normal control groups were given normal saline (8 mL/kg, p.o.) as a vehicle, while isolated compound morin to the treatment groups from 3 days after STZ administration for 3 weeks. Animals with blood glucose levels higher than 300 mg/dL were considered diabetic. During the experiment the blood glucose level and body weights were measured.

[2] = test system: STZ-induced diabetic rats; assay: STZ-induced diabetic rat model: serum biochemical parameters (liver, renal, lipid profile, HbA1c); format: in vivo, Sprague Dawley adult albino rats
Experimental: as §1, §2
On 21st day of in vivo antidiabetic activity, all the animals were anesthetized by intraperitoneal (IP) injection of pentobarbital sodium (35 mg/kg body weight) and euthanized by means of cervical decapitation according to the ARRIVE guidelines. Blood samples were collected by cardiac puncture and transferred to EDTA containing tubes. Blood was centrifuged at 3500 rpm for 10 min for the separation of serum. Biochemical parameters like serum alkaline phosphatase (ALP), serum glutamate pyruvate transaminase (SGPT), serum glutamate oxaloacetate transaminase (SGOT) and lipid parameters like total cholesterol (TC), triglycerides (TG), low-density lipoproteins (LDL), high-density lipoprotein (HDL), and serum creatinine in serum were assessed by using Biochemistry analyzer (PS-520; Shenzhen Procan Electronics-China) using diagnostic kits (Reactivos, GPL Barcelona, Spain). According to the reported protocol an enzyme-linked immunosorbent assay (ELISA) kit was used to evaluate the level of glycosylated hemoglobin (HbA1c).

[3] = test system: STZ-induced diabetic rats; assay: Pancreas histopathological assessment (H & E); format: in vivo, Sprague Dawley adult albino rats; settings: glibenclamide 5 mg/kg
Excerpt: For histopathological assessment, the pancreas tissues were removed immediately and washed with cold saline solution to remove the blood. Finally, the pancreas portions were fixed in 10% formalin, dehydrated with mixture of ethanol/xylene and then fixed with paraffin. Staining of tissue slides was done with hematoxylin and eosin (H & E) dye through automatic slide stainer (Sakura Tissue-Tek® DRS™ 2000; Tokyo, Japan). According to the reported assay, the stained slides were observed under microscope to see any variation in pancreatic tissue architecture of STZ-induced diabetic group and treated (glibenclamide/morin) groups.

Bacillus cereus = assay: Agar well diffusion, zone of inhibition; format: cell-based; settings: 37 °C, 24 h
Experimental: (§3) Antibacterial potential of isolated compound was investigated against both Gram-positive and Gram-negative bacterial strains; Escherichia coli, Bacillus cereus, Salmonella typhi, Klebsiella pneumonia, Pseudomonas aeruginosa and Proteus mirabilis. Bacterial strains were provided by the Department of Pharmacy, University of Malakand, Khyber Pakhtunkhwa, Pakistan, and were kept at 4 °C in agar slants in freeze-dried condition until further use.
(§4) Both Gram-positive and Gram-negative bacterial strains Escherichia coli, Bacillus cereus, Salmonella typhi, Klebsiella pneumonia, Pseudomonas aeruginosa and Proteus mirabilis organism viable count per mL in the stock suspension was determined using surface viable counting technique. About 10^8–10^9 colony-forming units (CFU) per mL were used as inoculum in subsequent experiments. A fresh stock suspension was used each time.
(§5) The antibacterial activity of the isolated compounds (morin, phloroglucinol, and 1-hexyl benzene) was determined using agar well diffusion method. Muller–Hinton agar media was prepared and autoclaved at 15 lbs pressure for 20 min and cooled to 45 °C. The standard bacterial stock suspension 10^8–10^9 CFU/mL were spread on Muller–Hinton agar plates and five wells (3 mm in diameter; four on side and one in center) were punched in plates using a sterile cork borer. The entire wells were filled with 100 µL of the isolated compounds (stock solution: 1 mg/mL) using microtiter-pipette and allowed to diffuse at room temperature for 2 h. The plates were incubated at 37 °C for 24 h. In the center hole, Imipenem was added which served as positive control. Simultaneous, addition of an equal concentration of DMSO solvent instead of isolated compounds was used as blank. After incubation, the zones of inhibition were measured in millimeters (mm) and mean values were calculated. The experiments were performed in triplicates.

Escherichia coli = assay: Agar well diffusion, zone of inhibition; format: cell-based; settings: 37 °C, 24 h
Experimental: as §3, §4, §5

Klebsiella pneumonia = assay: Agar well diffusion, zone of inhibition; format: cell-based; settings: Klebsiella pneumoniae, 37 °C, 24 h
Experimental: as §3, §4, §5

Proteus mirabilis = assay: Agar well diffusion, zone of inhibition; format: cell-based; settings: 37 °C, 24 h
Experimental: as §3, §4, §5

Pseudomonas aeruginosa = assay: Agar well diffusion, zone of inhibition; format: cell-based; settings: 37 °C, 24 h
Experimental: as §3, §4, §5

Salmonella typhi = assay: Agar well diffusion, zone of inhibition; format: cell-based; settings: Salmonella enterica, TYPHI, 24 h
Staphylococcus aureus = assay: Agar well diffusion, zone of inhibition; format: cell-based; settings: 37 °C, 24 h
Experimental: as §5, with “The standard bacterial stock suspension 10^8–10^9 CFU/mL were spread on Muller–Hinton agar plates and five wells (3 mm in diameter; four on side and one in center) were punched in plates using a sterile cork borer.” left out

[4] = biological target: T1, Type-VI α-amylase (porcine pancreas) (Sus scrofa, UniProt P00690); assay: In vitro α-amylase inhibition assay (DNSA); format: biochemical; settings: read-out: % α-Amylase Inhibition Mean ± SEM
T1 construct: purchased Sigma Aldrich (Darmstadt, Germany); host or cells: porcine pancreas
T1 sequence (P00690 16-511): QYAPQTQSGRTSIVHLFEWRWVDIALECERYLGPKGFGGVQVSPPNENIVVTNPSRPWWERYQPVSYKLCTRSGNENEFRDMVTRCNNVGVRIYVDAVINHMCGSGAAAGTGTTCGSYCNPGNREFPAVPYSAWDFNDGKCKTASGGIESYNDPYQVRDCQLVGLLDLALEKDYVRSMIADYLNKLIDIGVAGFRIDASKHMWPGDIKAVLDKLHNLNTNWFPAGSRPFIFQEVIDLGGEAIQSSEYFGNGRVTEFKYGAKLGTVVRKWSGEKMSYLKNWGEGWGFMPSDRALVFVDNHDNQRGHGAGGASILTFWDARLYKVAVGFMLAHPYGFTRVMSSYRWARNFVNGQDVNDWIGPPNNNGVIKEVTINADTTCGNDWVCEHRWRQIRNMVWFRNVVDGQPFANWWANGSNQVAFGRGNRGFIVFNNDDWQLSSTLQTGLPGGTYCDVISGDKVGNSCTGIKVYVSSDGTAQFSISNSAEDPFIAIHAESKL
Experimental: The α-amylase inhibition activity of morin was assessed using 3, 5-dinitrosalicylic acid (DNSA) assay. Morin, phloroglucinol, and 1-hexyl benzene were dissolved in mixture of 10% DMSO, 0.02M Na2HPO4/NaH2PO4 buffer, and 0.006M NaCl (pH 6.9) and finally dilutions (31.05, 62.5, 125, 250, 500 and 1000 µg/mL) were prepared. In total, 200 μL α-amylase (2 units/mL) was mixed with 200 μL morin and incubated at 30 °C for 10 min. After that, 200 μL starch (1%) was added to each serial dilution and incubated for 3 min. To stop the reaction 200 μL sodium potassium tartrate tetrahydrate reagent, 2M NaOH, and […] DNSA (96mM) reagent were added to the reaction mixture. The reaction mixtures were boiled for 10 min at 85–90 °C in a water bath. After cooling the mixture was diluted with 5mL distilled water and finally at 540 nm absorbance was recorded. A blank solution was prepared containing only isolated compound morin but no enzyme. […] The α-amylase enzyme inhibitory activity was calculated by the following Equation (2): (2) % α − amylase Inhibition =control absorbance−sample absorbance/control absorbance×100
(§6) All the in vitro and in vivo experiments were analyzed in three replicates and determined as mean ± SEM. Student’s t-test and one way ANOVA followed by Dunnett’s post hoc multiple comparison test was used. p ≤ 0.05 were considered as significant. Linear regression analysis was used to calculate the IC50 value for % DPPH, ABTS, α-amylase, and α-glucosidase inhibition against the different concentrations of the test samples by means of Excel program 2007.

[5] = biological target: Type-I α-glucosidase (Baker Yeast) (Saccharomyces cerevisiae, UniProt P53341); assay: In vitro α-glucosidase inhibition assay (PNPG); format: biochemical
Excerpt: Chemicals such as Tween-80 (Scharlau-chem., Barcelona, Spain), normal saline solution (Utsoka Pharma, Las Bela Baluchistan, Pakistan), lipid profile tests kits (Human, Hamburg, Germany), renal profile tests kits, and antioxidant enzymes kits (Biomed: Germany; diagnostic) were used in in vivo study. Mueller Hinton (MH) agar and broth (Merck, Modderfontein, South Africa) were used to culture the bacterial strains. Various solvents such as methanol, n-hexane, ethyl acetate, and chloroform (Merck, Darmstadt, Germany) were also used in this study.
The α-glucosidase inhibition potential of morin was determined according to the reported method with minor changes. The reaction mixture was prepared by taking 100 μL α-glucosidase (0.5 unit/mL), 600 μL phosphate buffer (0.1 M; pH 6.9), and 50 μL of isolated compounds (morin, phloroglucinol, and 1-hexyl benzene) with serial dilutions of 31.05, 62.5, 125, 250, 500 and 1000 µg/mL. All the reaction mixtures were incubated at 37 °C for 15 min. The enzymatic reactions were started by adding 100 μL substrate (p-nitro-phenyl-α-D-glucopyranoside) solution (5 mM) formed in phosphate buffer (0.1 M; pH 6.9), finally incubated at 37 °C for 15 min. The reaction was completed by adding sodium carbonate (400 μL; 0.2 M) solution and then at 405 nm absorbance was measured. The blank solution was prepared containing only isolated compounds without α-glucosidase. Percent α-glucosidase inhibition potential was calculated using Equation (3): (3) % α − glucosidase Inhibition =control absorbance−sample absorbance/control absorbance×100
as §6

[6] = glibenclamide 0.5 mg/kg, morin 15, 30, and 50 mg/kg, vs diabetic control rats
[7] = glibenclamide 5 mg/kg, morin 15, 30, and 50 mg/kg body weight, serum, day 21, vs diabetic control

Sequence of Type-I α-glucosidase (Baker Yeast) (P53341 whole entry): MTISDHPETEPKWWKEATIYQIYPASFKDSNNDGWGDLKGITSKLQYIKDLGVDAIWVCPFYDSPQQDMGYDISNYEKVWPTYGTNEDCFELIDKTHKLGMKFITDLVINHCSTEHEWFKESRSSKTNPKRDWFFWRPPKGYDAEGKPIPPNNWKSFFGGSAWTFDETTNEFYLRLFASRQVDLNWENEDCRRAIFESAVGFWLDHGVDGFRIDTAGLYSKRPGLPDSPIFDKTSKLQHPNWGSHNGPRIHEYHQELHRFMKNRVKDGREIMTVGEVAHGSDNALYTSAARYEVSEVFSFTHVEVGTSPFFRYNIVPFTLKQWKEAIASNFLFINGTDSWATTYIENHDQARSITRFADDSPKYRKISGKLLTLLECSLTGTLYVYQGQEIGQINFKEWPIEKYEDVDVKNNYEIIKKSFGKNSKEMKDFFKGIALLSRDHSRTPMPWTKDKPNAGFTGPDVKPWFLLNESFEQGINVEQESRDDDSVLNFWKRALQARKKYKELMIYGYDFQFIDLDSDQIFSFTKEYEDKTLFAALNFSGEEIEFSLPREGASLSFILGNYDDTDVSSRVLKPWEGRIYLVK

## COc1ccc(Cl)cc1C(=O)NCCc1ccc(S(=O)(=O)NC(=O)NC2CCCCC2)cc1 [glibenclamide, reference compound]
[1]; glibenclamide 0.5 mg/kg, p.o.
  body weight: significantly (p < 0.001) reversed the diabetes-induced decrease in body weight
[1]; glibenclamide 5 mg/kg body weight, day 21
  fasting glucose level: significantly (p < 0.001) decreased
[2]; [6]
  HDL cholesterol: significantly increased (p < 0.01)
  HbA1c level: significant decrease (p < 0.01; p < 0.001)
  LDL level: significant decrease (p < 0.01; p < 0.001)
  TC level: significant decrease (p < 0.01; p < 0.001)
  TG level: significant decrease (p < 0.01; p < 0.001)
[2]; glibenclamide 5 mg/kg, morin 15, 30, and 50 mg/kg body weight, day 21, vs diabetic control
  serum creatinine level: significantly reduced (p < 0.01; p < 0.001)
[2]; [7]
  ALP level: significantly reduced (p < 0.01; p < 0.001)
  SGOT level: significantly reduced (p < 0.01; p < 0.001)
  SGPT level: significantly reduced (p < 0.01; p < 0.001)
[3]
  pancreas histopathology: did not show any violation from the normal histological pattern

## C[C@@H](O)[C@H]1C(=O)N2C(C(=O)O)=C(SCCN=CN)C[C@H]12 [Imipenem, reference compound]
Bacillus cereus
  zone of inhibition at 100 µg/mL: 30 ± 0.5 mm
Escherichia coli
  zone of inhibition at 100 µg/mL: 33 ± 0.2 mm
Klebsiella pneumonia
  zone of inhibition at 100 µg/mL: 29 ± 0.5 mm
Proteus mirabilis
  zone of inhibition at 100 µg/mL: 30 ± 0.5 mm
Pseudomonas aeruginosa
  zone of inhibition at 100 µg/mL: 27 ± 1.1 mm
Salmonella typhi
  zone of inhibition at 100 µg/mL: 33 ± 0.1 mm
Staphylococcus aureus
  zone of inhibition at 100 µg/mL: 25 ± 0.3 mm

## C[C@H]1O[C@H](O[C@H]2[C@H](O)[C@@H](O)[C@@H](O[C@H]3[C@H](O)[C@@H](O)C(O)O[C@@H]3CO)O[C@@H]2CO)[C@H](O)[C@@H](O)[C@@H]1N[C@H]1C=C(CO)[C@@H](O)[C@H](O)[C@H]1O (stereo partly shown) [Standard acarbose, acarbose, reference compound]
[4]
  inhibition at 31.05 µg/mL: 48 ± 0.4%
  inhibition at 62.5 µg/mL: 62 ± 0.5%
  inhibition at 125 µg/mL: 69 ± 0.5%
  inhibition at 250 µg/mL: 75 ± 1.1%
  inhibition at 500 µg/mL: 83 ± 0.5%
  inhibition at 1000 µg/mL: 90 ± 0.5%
[5]; 31.05 µg/mL
  % α-Glucosidase Inhibition Mean ± SEM: 60 ± 0.4%
[5]; 62.5 µg/mL
  % α-Glucosidase Inhibition Mean ± SEM: 68 ± 0.5%
[5]; 125 µg/mL
  % α-Glucosidase Inhibition Mean ± SEM: 71 ± 0.5%
[5]; 250 µg/mL
  % α-Glucosidase Inhibition Mean ± SEM: 77 ± 1.0%
[5]; 500 µg/mL
  % α-Glucosidase Inhibition Mean ± SEM: 82 ± 0.4%
[5]; 1000 µg/mL
  % α-Glucosidase Inhibition Mean ± SEM: 89 ± 0.5%

Reference: article PMC8348310, “Antioxidants Isolated from Elaeagnus umbellata (Thunb.) Protect against Bacterial Infections and Diabetes in Streptozotocin-Induced Diabetic Rat Model” (Molecules, 2021)
